Laboratory results as given in ChEMBL document CHEMBL1201862, “PubChem BioAssay data set” (2004).
Active and inactive are the calls of the source.

Columns and labels:
[1] = biological target: T1, SUMO-activating enzyme (Homo sapiens, UniProt Q9UBT2); test: SUMOylation inhibitor hit validation, confirmation, SUMOylation inhibitor project, biochemical, AlphaScreen (AID 2018); format: functional
[2] = biological target: T1, SUMO-activating enzyme; test: inhibitors of in vitro SUMOylation cascade, primary screen, biochemical, HTRF, uHTS (AID 2006); format: protein-complex assay
[3] = biological target: T2, ORF 73 (Human herpesvirus 8, UniProt O40947); test: inhibitors of C-LANA binding to LBS DNA, dose response, biochemical, fluorescence polarization, cherry-picked samples (AID 504725); design: species or system Human gammaherpesvirus 8;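 also: fluorescence polarization of a labeled DNA duplex reporting LANA DNA binding; potency is for inhibitors that block LANA binding to the DNA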
T2 sequence (O40947 whole entry): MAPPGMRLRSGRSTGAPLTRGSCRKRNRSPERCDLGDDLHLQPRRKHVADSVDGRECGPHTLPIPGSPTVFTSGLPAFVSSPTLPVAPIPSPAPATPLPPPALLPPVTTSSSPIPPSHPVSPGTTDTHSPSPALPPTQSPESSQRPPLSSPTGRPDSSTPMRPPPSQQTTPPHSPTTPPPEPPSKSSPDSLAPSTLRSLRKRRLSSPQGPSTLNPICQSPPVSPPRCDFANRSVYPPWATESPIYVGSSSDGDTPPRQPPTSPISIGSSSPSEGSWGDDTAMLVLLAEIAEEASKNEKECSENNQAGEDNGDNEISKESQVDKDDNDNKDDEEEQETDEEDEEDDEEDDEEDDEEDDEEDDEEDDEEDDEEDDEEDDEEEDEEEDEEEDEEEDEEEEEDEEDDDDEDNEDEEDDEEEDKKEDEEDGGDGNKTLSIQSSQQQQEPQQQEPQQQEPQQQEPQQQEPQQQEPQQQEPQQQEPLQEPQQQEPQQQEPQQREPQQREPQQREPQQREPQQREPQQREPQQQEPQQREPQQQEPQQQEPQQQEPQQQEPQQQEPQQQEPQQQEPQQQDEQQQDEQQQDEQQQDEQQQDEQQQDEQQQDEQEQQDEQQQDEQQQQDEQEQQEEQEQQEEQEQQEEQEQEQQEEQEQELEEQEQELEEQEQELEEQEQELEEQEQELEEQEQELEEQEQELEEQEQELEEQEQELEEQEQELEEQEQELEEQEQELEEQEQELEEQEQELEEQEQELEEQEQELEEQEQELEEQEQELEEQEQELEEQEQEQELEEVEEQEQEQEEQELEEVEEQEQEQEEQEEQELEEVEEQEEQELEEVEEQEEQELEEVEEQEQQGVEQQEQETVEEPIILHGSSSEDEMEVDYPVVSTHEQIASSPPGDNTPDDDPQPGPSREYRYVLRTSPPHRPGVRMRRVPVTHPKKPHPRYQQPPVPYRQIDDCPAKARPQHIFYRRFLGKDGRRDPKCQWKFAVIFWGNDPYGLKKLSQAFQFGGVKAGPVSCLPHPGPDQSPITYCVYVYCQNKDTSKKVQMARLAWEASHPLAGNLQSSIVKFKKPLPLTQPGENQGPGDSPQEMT

[4] = biological target: Polyadenylate-binding protein 1 (Homo sapiens, UniProt P11940); test: PABP poly(A) RNA binding inhibitors, primary screen, biochemical, fluorescence polarization, uHTS (AID 2014)
Polyadenylate-binding protein 1, sequence (P11940 whole entry): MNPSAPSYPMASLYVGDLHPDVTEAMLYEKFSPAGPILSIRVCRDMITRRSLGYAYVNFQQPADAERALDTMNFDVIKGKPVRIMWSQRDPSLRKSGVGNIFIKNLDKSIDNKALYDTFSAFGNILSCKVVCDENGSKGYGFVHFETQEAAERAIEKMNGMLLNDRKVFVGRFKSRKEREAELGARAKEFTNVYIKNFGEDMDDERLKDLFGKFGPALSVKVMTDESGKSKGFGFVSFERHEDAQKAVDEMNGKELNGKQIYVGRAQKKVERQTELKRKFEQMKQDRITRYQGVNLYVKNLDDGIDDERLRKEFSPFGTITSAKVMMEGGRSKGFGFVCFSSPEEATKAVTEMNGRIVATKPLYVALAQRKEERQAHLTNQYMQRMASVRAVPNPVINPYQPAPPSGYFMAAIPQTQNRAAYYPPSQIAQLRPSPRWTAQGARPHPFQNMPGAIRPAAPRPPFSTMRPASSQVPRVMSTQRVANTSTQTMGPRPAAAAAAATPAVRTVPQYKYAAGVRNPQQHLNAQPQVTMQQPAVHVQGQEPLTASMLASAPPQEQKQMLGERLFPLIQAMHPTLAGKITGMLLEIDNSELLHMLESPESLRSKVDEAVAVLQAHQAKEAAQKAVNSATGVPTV

[5] = biological target: Eukaryotic translation initiation factor 4H (Homo sapiens, UniProt Q15056); test: human eIF4H binding inhibitors, primary screen, translation initiation inhibitor project, biochemical, uHTS, fluorescence polarization (AID 2012)
[6] = A cytotoxicity screen of small molecule inhibitors of the PhoP region in Salmonella typhi identified in the primary screen. [Related pubchem assays: 1850, 1864, 1985 ]; format: functional
[7] = biological target: T3, Aspartyl aminopeptidase (Plasmodium falciparum 3D7, UniProt Q8I2J3); test: Counterscreen for inhibitors of M1 and M17 aminopeptidases: QFRET-based biochemical high throughput dose response assay for inhibitors of the Plasmodium falciparum M18 Aspartyl Aminopeptidase (PFM18AAP). [Related PubChem assays: 1619 (Screening assay (M17LAP inhibitors).), 1445 (Screening assay (M1AAP inhibitors).)]
T3 sequence (Q8I2J3 whole entry): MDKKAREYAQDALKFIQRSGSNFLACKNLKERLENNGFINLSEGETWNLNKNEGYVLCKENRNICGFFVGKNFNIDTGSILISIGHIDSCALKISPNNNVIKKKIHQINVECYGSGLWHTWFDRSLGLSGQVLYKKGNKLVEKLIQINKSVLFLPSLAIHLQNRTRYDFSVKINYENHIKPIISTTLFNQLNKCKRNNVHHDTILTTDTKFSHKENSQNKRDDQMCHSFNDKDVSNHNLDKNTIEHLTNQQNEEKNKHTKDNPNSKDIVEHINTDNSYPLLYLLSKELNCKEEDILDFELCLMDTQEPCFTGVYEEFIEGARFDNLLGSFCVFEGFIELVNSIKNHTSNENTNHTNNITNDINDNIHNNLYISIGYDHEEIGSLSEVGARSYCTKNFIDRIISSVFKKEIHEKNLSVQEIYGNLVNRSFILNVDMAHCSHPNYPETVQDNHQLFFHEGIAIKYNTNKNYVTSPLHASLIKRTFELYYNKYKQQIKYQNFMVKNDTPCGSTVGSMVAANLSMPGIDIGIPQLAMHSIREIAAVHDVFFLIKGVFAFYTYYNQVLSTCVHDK

[8] = biological target: Procathepsin L (Homo sapiens, UniProt P07711); test: cathepsin L inhibitors, dose response, counter-screen for M1/M17 aminopeptidase inhibitor project, biochemical, QFRET, 1536-well (AID 2214)
Procathepsin L, sequence (P07711 whole entry): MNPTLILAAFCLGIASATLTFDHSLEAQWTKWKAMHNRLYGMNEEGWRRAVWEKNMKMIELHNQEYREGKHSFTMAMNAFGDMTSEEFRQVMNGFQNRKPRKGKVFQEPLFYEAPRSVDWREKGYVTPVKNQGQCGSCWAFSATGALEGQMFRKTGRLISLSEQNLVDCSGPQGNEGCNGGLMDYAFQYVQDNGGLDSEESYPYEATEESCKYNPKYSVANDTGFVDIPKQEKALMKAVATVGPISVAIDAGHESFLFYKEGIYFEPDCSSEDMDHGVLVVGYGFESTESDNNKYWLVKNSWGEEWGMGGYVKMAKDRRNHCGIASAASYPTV

[9] = biological target: T4, Leucine aminopeptidase (Plasmodium falciparum 3D7, UniProt Q8IL11); test: P. falciparum M17LAP inhibitors, primary screen, biochemical, fluorogenic H-Leu-NHMec substrate, 1536-well (AID 1619); format: functional
T4 sequence (Q8IL11 whole entry): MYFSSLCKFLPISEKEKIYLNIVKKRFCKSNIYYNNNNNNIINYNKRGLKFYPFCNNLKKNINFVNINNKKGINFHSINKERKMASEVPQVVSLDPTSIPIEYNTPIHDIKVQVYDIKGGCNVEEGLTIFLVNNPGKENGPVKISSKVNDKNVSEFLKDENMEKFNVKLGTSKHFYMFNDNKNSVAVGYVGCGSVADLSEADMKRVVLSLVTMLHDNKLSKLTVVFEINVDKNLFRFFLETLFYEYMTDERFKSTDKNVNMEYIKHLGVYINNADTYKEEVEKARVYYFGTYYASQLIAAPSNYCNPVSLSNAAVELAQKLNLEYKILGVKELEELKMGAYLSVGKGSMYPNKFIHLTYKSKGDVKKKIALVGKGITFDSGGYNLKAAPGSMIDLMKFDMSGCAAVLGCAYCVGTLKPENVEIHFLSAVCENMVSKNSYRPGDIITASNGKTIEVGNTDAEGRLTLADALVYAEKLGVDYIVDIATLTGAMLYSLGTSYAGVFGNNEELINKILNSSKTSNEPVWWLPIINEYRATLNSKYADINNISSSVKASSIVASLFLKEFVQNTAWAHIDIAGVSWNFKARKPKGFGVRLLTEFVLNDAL

[10] = system: HT-1080; test: cytotoxicity in HT1080 fibrosarcoma cells, cell-based, fluorescence readout (AID 620); format: functional; details: Homo sapiens
[11] = system: HEK293; test: inhibitors of LMP1-driven NF-kB reporter, dose response, cell-based, HEK293, luciferase, cherry-pick (AID 588343); format: functional; details: Homo sapiens
[12] = biological target: Luciferin 4-monooxygenase (Photinus pyralis, UniProt P08659); test: Counter Screen for Luciferase-based Assay Positives. [Related pubchem assays: 620, 618, 411 ]
Luciferin 4-monooxygenase, sequence (P08659 whole entry): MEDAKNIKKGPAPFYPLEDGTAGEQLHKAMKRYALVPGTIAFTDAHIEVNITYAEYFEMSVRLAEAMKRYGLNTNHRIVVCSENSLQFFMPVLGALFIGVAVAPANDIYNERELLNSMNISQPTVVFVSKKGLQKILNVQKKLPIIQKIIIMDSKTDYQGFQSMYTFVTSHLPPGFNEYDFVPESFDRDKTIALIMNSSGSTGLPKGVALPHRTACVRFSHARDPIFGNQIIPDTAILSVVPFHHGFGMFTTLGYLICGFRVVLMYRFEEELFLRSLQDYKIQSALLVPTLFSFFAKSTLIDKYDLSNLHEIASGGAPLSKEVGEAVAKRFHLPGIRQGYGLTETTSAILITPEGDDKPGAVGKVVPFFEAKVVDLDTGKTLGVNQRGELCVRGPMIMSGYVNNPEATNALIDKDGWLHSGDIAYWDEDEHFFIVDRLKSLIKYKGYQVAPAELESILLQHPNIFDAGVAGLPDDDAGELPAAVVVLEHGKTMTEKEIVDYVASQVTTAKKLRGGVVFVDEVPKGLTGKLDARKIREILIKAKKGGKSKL

[13] = cytotoxicity toward NIH3T3 fibroblasts, dose response, counter-screen, cell-based, ATP luminescence, mouse fibroblasts (AID 2010); format: functional;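 also: cells exposed to compound for about 90 hours before reading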
[14] = biological target: T5, Acyl-homoserine lactone acylase PvdQ (Pseudomonas aeruginosa (strain LESB58), UniProt Q9I194); test: P. aeruginosa PvdQ acylase inhibitors, dose response, biochemical, fluorescence, plate reader and imaging, cherry-picks (AID 493231)
T5 sequence (Q9I194 whole entry): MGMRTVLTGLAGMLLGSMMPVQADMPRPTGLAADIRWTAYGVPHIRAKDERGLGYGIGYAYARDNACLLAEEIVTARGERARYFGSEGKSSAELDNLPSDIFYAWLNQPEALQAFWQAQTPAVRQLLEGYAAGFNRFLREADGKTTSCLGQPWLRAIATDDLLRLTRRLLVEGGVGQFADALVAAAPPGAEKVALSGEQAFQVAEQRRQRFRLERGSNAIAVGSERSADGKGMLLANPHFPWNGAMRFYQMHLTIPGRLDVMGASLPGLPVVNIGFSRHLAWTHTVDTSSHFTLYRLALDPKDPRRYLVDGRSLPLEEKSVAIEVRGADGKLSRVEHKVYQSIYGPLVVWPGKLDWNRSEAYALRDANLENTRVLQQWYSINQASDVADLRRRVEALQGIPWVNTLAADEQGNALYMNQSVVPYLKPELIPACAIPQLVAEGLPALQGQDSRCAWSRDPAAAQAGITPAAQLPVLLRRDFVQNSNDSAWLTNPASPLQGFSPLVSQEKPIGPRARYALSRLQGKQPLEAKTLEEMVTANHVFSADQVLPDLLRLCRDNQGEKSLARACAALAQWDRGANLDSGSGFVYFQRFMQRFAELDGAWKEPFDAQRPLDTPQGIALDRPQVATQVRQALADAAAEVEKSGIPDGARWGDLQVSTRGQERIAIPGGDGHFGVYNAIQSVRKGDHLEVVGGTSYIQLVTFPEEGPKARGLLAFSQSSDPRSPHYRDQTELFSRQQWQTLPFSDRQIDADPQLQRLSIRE

[15] = inhibitors of intracellular T. cruzi replication, confirmation, NIH3T3 host cells, beta-gal luminescence (AID 2044); format: functional, cell-based;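 also: intracellular parasites grown in NIH/3T3 mouse fibroblasts as host cells; luminescent beta-galactosidase reporter signal from transgenic T. cruzi replicating inside host cells; inhibitors lower the luminescence signal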
[16] = biological target: T6, Ubiquitin-conjugating enzyme E2 N (Homo sapiens, UniProt P61088); format: functional;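 also: Dose-response confirmation in a TR-FRET assay detecting UBC13-driven polyubiquitin chain formation, inhibition measured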
T6 sequence (P61088 whole entry): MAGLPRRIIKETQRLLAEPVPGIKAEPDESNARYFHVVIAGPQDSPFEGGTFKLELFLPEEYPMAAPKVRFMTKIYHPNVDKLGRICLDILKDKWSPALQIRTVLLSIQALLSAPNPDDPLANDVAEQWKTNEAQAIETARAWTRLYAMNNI

T1 sequence (Q9UBE0 whole entry): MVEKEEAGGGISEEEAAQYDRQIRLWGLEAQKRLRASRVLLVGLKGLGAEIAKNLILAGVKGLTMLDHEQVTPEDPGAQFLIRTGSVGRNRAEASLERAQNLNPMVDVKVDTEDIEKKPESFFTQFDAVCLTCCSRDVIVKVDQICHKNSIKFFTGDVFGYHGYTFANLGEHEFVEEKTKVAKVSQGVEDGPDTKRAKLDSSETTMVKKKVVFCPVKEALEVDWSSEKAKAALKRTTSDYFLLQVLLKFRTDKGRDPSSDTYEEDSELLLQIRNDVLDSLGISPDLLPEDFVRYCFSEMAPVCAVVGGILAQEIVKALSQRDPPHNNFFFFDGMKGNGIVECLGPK
T1 sequence (Q9UBT2 whole entry): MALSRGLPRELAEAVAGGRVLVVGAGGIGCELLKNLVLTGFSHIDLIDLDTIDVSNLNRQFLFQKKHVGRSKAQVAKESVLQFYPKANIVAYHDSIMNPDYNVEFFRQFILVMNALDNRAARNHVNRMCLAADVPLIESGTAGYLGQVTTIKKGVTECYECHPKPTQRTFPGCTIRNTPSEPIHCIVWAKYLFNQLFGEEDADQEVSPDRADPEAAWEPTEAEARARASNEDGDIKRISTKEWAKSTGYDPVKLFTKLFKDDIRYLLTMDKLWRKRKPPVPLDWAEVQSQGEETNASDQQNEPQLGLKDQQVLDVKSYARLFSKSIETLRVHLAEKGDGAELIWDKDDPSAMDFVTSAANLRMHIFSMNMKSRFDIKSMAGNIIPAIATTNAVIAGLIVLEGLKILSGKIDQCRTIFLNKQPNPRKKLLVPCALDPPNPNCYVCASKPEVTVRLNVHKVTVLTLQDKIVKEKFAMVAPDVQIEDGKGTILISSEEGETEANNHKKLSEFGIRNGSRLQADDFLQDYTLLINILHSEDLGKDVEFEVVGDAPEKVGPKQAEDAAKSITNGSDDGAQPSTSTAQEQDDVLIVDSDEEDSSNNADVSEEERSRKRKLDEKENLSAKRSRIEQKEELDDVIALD

Which results are given for `COc1cc2c(cc1OC)-c1cc3ccc4c(c3c[n+]1CC2)OCO4`?
IC50 [1]: 4.17 µM (active); IC50 [2]: 8.68 µM (active); AC50 [3]: 20.5 µM (active)

For `O=C(NC(Cc1ccccc1)C(=O)Oc1ccc2c(C(F)(F)F)cc(=O)oc2c1)OCc1ccccc1` (stereo unspecified), which IC50 [4] is on record?
Its IC50 is > 100 µM (inactive).

And the IC50 [5]?
The IC50 was > 100 µM (inactive).

For `CNc1nc(SC)n(C)c(=O)c1N=O`, which EC50 [6] is on record?
The EC50 was > 50 µM (active).

For `COC(=O)c1c(-c2ccc(C)cc2)csc1NC(=O)C1CC=CCC1C(=O)O` (stereo unspecified), which IC50 [7] is on record?
The IC50 was > 73.5 µM (not active).

And the IC50 [8]?
The IC50 was > 59.6 µM (not active).

What about the IC50 [9] of the same molecule?
The IC50 was 1.2 µM (active).

With `c1ccc(OCCSc2nnc3sc4ccccc4n23)cc1` as the molecule, how does the EC50 [10] read?
The EC50 was 14.8 µM (active).

What about the AC50 [11] of the same molecule?
The AC50 was 1.29 µM (active).

What about the EC50 [12] of the same molecule?
Its EC50 is > 100 µM (not active).

With `O=C(NCC1CC1)c1cc([N+](=O)[O-])cc([N+](=O)[O-])c1` as the molecule, how does the EC50 [13] read?
Its EC50 is > 60 µM (not active).

What about the AC50 [14] of the same molecule?
The AC50 was 3.55 µM (active).

What about the EC50 [15] of the same molecule?
The EC50 was 622 nM (active).

For `O=S(=O)(c1ccc(NC(=S)NN=C(C2CC2)C2CC2)cc1)N1CCOCC1`, which IC50 [16] is on record?
The IC50 was > 20 µM (inactive).
